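At the GI50, growth is halved. TGI is the concentration that stops growth completely.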
Experiments:
Assay in all cases: inhibition of tumour cell growth, NCI panel, 384-well format
[1] = tested on: HCT-116 colon
[2] = tested on: OVCAR-5 ovarian
[3] = tested on: SNB-19 CNS
[4] = tested on: MDA-MB-231 breast
[5] = tested on: HCT-15 colon
[6] = tested on: NCI-H460 NSCLC
[7] = tested on: ACHN renal
[8] = tested on: HS 578T breast
[9] = tested on: CCRF-CEM leukemia
[10] = tested on: MOLT-4 leukemia
[11] = tested on: OVCAR-8 ovarian
[12] = tested on: SF-295 CNS
[13] = tested on: HCC-2998 colon
[14] = tested on: IGROV1 ovarian
[15] = tested on: SR leukemia
[16] = tested on: LOX IMVI melanoma
[17] = tested on: SN12C renal
[18] = tested on: MALME-3M melanoma
[19] = tested on: SF-268 CNS
[20] = tested on: SNB-75 CNS
[21] = tested on: OVCAR-4 ovarian
[22] = tested on: HT29 colon
[23] = tested on: K-562 leukemia
[24] = tested on: MDA-MB-435 melanoma
[25] = tested on: HOP-92 NSCLC
[26] = tested on: MCF7 breast
[27] = tested on: SK-MEL-5 melanoma
[28] = tested on: NCI-H522 lung
[29] = tested on: HOP-62 NSCLC
[30] = tested on: SF-539 CNS
[31] = tested on: NCI-H226 lung
[32] = tested on: 786-0 renal
[33] = tested on: MDA-MB-468 breast
[34] = tested on: U251 glioblastoma
[35] = tested on: KM12 colon
[36] = tested on: UACC-257 melanoma
[37] = tested on: NCI-H322M lung
[38] = tested on: T-47D breast
[39] = tested on: PC-3 prostate
[40] = tested on: EKVX NSCLC
[41] = tested on: A498 renal
[42] = tested on: A549 NSCLC
[43] = tested on: RPMI-8226 leukemia
[44] = tested on: M14 melanoma
[45] = tested on: SK-OV-3 ovarian
[46] = tested on: RXF 393 renal
[47] = tested on: BT-549 breast
[48] = tested on: DU-145 prostate
[49] = tested on: NCI/ADR-RES ovarian
[50] = tested on: SK-MEL-28 melanoma
[51] = tested on: TK-10 renal
[52] = tested on: OVCAR-3 ovarian
[53] = tested on: CAKI-1 renal
[54] = tested on: NCI-H23 lung
[55] = tested on: UO-31 renal
[56] = tested on: COLO 205 colon
[57] = tested on: SW-620 colon
[58] = tested on: HL-60(TB) leukemia

SMILES: O=C(NC[C@H](O)CO)c1ccncc1Nc1ccc(I)cc1F
- GI50 [1]: 0.0614 µM
- TGI [1]: 1.45 µM
- GI50 [2]: 0.0476 µM
- TGI [2]: > 100 µM
- GI50 [3]: 13.2 µM
- TGI [3]: > 100 µM
- GI50 [4]: 0.449 µM
- TGI [4]: 24.4 µM
- GI50 [5]: 3.19 µM
- TGI [5]: > 100 µM
- GI50 [6]: 1.55 µM
- TGI [6]: > 100 µM
- GI50 [7]: 13.8 µM
- TGI [7]: > 100 µM
- GI50 [8]: 16 µM
- TGI [8]: > 100 µM
- GI50 [9]: 34.5 µM
- TGI [9]: > 100 µM
- GI50 [10]: 12.3 µM
- TGI [10]: 25.2 µM
- GI50 [11]: 27 µM
- TGI [11]: > 100 µM
- GI50 [12]: 30.6 µM
- TGI [12]: > 100 µM
- GI50 [13]: 0.0278 µM
- TGI [13]: 0.217 µM
- GI50 [14]: 0.0849 µM
- TGI [14]: 10.9 µM
- GI50 [15]: 1.33 µM
- TGI [15]: 15.9 µM
- GI50 [16]: 0.0887 µM
- TGI [16]: 1.72 µM
- GI50 [17]: 4.09 µM
- TGI [17]: > 100 µM
- GI50 [18]: < 0.01 µM
- GI50 [19]: > 100 µM
- TGI [19]: > 100 µM
- GI50 [20]: 8.92 µM
- TGI [20]: 68 µM
- GI50 [21]: 21.5 µM
- TGI [21]: > 100 µM
- GI50 [22]: 0.0156 µM
- TGI [22]: > 100 µM
- GI50 [23]: 0.423 µM
- TGI [23]: > 100 µM
- GI50 [24]: 0.0134 µM
- TGI [24]: > 100 µM
- GI50 [25]: 0.484 µM
- TGI [25]: 3.62 µM
- GI50 [26]: 18.9 µM
- TGI [26]: > 100 µM
- GI50 [27]: 0.0331 µM
- TGI [27]: 13.9 µM
- GI50 [28]: 13.6 µM
- TGI [28]: > 100 µM
- GI50 [29]: 0.25 µM
- TGI [29]: > 100 µM
- GI50 [30]: 2.9 µM
- TGI [30]: 25 µM
- GI50 [31]: 0.614 µM
- TGI [31]: 47.4 µM
- GI50 [32]: 19.6 µM
- TGI [32]: > 100 µM
- GI50 [33]: 14.8 µM
- TGI [33]: 36.2 µM
- GI50 [34]: 1.67 µM
- TGI [34]: > 100 µM
- GI50 [35]: 0.0953 µM
- TGI [35]: > 100 µM
- GI50 [36]: < 0.01 µM
- TGI [36]: 0.0319 µM
- GI50 [37]: 0.498 µM
- TGI [37]: > 100 µM
- GI50 [38]: 26.1 µM
- TGI [38]: > 100 µM
- GI50 [39]: > 100 µM
- TGI [39]: > 100 µM
- GI50 [40]: 8.37 µM
- TGI [40]: > 100 µM
- GI50 [41]: 2.63 µM
- TGI [41]: 34.5 µM
- GI50 [42]: 0.3 µM
- TGI [42]: 18.8 µM
- GI50 [43]: 7.66 µM
- TGI [43]: 47.3 µM
- GI50 [44]: < 0.01 µM
- TGI [44]: 0.0235 µM
- GI50 [45]: 23.1 µM
- TGI [45]: > 100 µM
- GI50 [46]: 2.03 µM
- TGI [46]: 17.4 µM
- GI50 [47]: 15 µM
- TGI [47]: > 100 µM
- GI50 [48]: 8.45 µM
- TGI [48]: > 100 µM
- GI50 [49]: 22.3 µM
- TGI [49]: > 100 µM
- GI50 [50]: < 0.01 µM
- TGI [50]: 0.0136 µM
- GI50 [51]: 2.24 µM
- TGI [51]: 39 µM
- GI50 [52]: 14 µM
- TGI [52]: > 100 µM
- GI50 [53]: 0.433 µM
- TGI [53]: > 100 µM
- GI50 [54]: 0.0413 µM
- TGI [54]: 1.73 µM
- GI50 [55]: 0.354 µM
- TGI [55]: 11.5 µM
- GI50 [56]: < 0.01 µM
- TGI [56]: 0.171 µM
- GI50 [57]: < 0.01 µM
- TGI [57]: > 100 µM
- GI50 [58]: < 0.01 µM
- TGI [58]: 0.0114 µM
